The text below walks through data of PMC8897147 (Acta Pharmaceutica Sinica. B, 2021).

Test [1] has as its target T1, CLR/RAMP3 (Homo sapiens, UniProt O60896+Q16602). Briefly: β-Arrestin1 recruitment. Particulars: COS-7. (Activated receptors often draw arrestin, which recruitment assays turn into a signal.)
The target of another test is CLR (Homo sapiens, UniProt Q16602). Description: cAMP accumulation. Particulars: COS-7.
Test [2] deals with T1, CLR/RAMP3. Description: β-Arrestin2 recruitment. The settings on record: COS-7.
The subject of test [3] is SCTR. Description: Gαq activation. The settings on record: HEK293A, % of max, receptor only, mean ± SEM n≥3.
Test [4] concerns SCTR. Briefly: β-Arrestin1 recruitment. The settings on record: COS-7, % of max, receptor only, mean ± SEM n≥3.
In test [5] the test system is SCTR. Description: β-Arrestin2 recruitment. The settings on record: COS-7, % of max, receptor only, mean ± SEM n≥3.
The test system of test [6] is SCTR. Description: cAMP accumulation. Particulars: COS-7; vector (no RAMP); % of max, receptor only; mean ± SEM n≥3. For orientation: cAMP levels reflect the balance of adenylyl cyclase and phosphodiesterase activity.

As a reminder, the Emax is the size of the effect at its maximum, as opposed to the concentration needed.

T1 sequence (Q16602 23-461): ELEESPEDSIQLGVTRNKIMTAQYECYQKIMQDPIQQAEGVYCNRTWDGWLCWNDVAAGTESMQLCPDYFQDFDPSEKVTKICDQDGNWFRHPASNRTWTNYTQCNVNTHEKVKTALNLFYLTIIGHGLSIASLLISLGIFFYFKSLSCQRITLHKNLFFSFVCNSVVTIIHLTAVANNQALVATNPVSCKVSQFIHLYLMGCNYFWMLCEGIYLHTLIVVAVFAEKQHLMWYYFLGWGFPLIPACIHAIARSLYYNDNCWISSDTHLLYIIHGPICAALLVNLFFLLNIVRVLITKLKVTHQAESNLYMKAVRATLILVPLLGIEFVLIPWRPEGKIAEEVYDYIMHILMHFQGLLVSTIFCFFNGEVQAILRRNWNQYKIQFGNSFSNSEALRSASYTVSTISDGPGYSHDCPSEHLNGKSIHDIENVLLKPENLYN
T1 sequence (O60896 24-148): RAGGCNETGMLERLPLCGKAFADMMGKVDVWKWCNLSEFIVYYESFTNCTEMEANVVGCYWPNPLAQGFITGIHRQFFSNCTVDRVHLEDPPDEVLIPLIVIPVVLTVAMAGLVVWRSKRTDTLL
Sequence of CLR (Q16602 23-461): as the sequence (Q16602 23-461) above

On to `CC[C@H](C)[C@H](NC(=O)[C@H](CCC(N)=O)NC(=O)[C@H](Cc1c[nH]cn1)NC(=O)[C@H](C)NC(=O)[C@H](CC(C)C)NC(=O)[C@H](CCCCN)NC(=O)[C@H](CCC(N)=O)NC(=O)[C@@H](NC(=O)[C@@H](NC(=O)[C@@H]1CSSC[C@H](NC(=O)CNC(=O)[C@H](Cc2ccccc2)NC(=O)[C@H](CO)NC(=O)[C@H](CCCNC(=N)N)NC(=O)[C@H](CC(C)C)NC(=O)CNC(=O)[C@H](CCC(N)=O)NC(=O)[C@H](Cc2ccccc2)NC(=O)[C@H](CC(N)=O)NC(=O)[C@H](CC(N)=O)NC(=O)[C@H](CCSC)NC(=O)[C@H](CO)NC(=O)[C@H](CCC(N)=O)NC(=O)[C@H](CCCNC(=N)N)NC(=O)[C@@H](N)Cc2ccc(O)cc2)C(=O)N[C@@H](CCCNC(=N)N)C(=O)N[C@@H](Cc2ccccc2)C(=O)NCC(=O)N[C@@H]([C@@H](C)O)C(=O)N1)[C@@H](C)O)C(C)C)C(=O)N[C@@H](Cc1ccc(O)cc1)C(=O)N[C@@H](CCC(N)=O)C(=O)N[C@@H](Cc1ccccc1)C(=O)N[C@H](C(=O)N[C@@H](CC(=O)O)C(=O)N[C@@H](CCCCN)C(=O)N[C@@H](CC(=O)O)C(=O)N[C@@H](CCCCN)C(=O)N[C@@H](CC(=O)O)C(=O)N[C@@H](CC(N)=O)C(=O)N[C@H](C(=O)N[C@@H](C)C(=O)N1CCC[C@H]1C(=O)N[C@@H](CCCNC(=N)N)C(=O)N[C@@H](CO)C(=O)N[C@@H](CCCCN)C(=O)N[C@H](C(=O)N[C@@H](CO)C(=O)N1CCC[C@H]1C(=O)N[C@@H](CCC(N)=O)C(=O)NCC(=O)N[C@@H](Cc1ccc(O)cc1)C(N)=O)[C@@H](C)CC)C(C)C)[C@@H](C)O` [Adrenomedullin, adrenomedullin], for which the Emax on CLR/RAMP3 [1] is 17.9 ± 11.7%; on CLR it was 46.3 ± 2.9%; on CLR/RAMP3 [2] it was 58.4 ± 10.9%.
For the compound secretin, the Emax in the test with SCTR [3] (RAMP1) is on record as 127.7 ± 13.5%; in the test with SCTR [3] (RAMP3), 97.8 ± 21.1%; in the test with SCTR [3] (vector (no RAMP)) it was 100 ± 14.1%; in the test with SCTR [4] (RAMP1), 91.8 ± 3.6%; in the test with SCTR [4] (RAMP3) it was 69.1 ± 4.9∗∗ %; with SCTR [4] (vector (no RAMP)), 100 ± 5.6%. Also, the Emax with SCTR [5] (RAMP1) is given as 81 ± 6.2%; in the test on SCTR [5] (RAMP3), 67 ± 4.2∗∗ %; in the test on SCTR [5] (vector (no RAMP)), 100 ± 4%; with SCTR [6], 100 ± 1%.
